From patent US20230158151A1 (NURIX THERAPEUTICS, INC., priority 2021, published 2023) come the findings set out here.

Where two headings read alike, the source gives them in different places.

A short description of data set [1]: Mouse PK Analysis (plasma LC/MS/MS, noncompartmental PK parameters). Conditions: mice; for AUC(0-t) / Cmax / Tmax: mouse, oral administration, plasma. The arrangement: AUC(0-t): concentration or dose not given beside the values. Type of data set: in vivo. How it is done:
Compounds 30 and 29 were administered to mice orally. After 6 hours or 24 hours, splenocytes cells were harvested. ITK was evaluated by Western blotting. Plasma concentrations were determined by LC/MS/MS. Plasma samples were protein precipitated by addition of 100 μl of acetonitrile containing 50 ng/ml of internal standard. The resulting mixture was vortexed and centrifuged at 4000 RPM for 5 minutes. An aliquot of the resultant supernatant (75 μl) was added to 75 μl of 0.1% formic acid in water to constitute the final sample for injection. Samples were injected on a Shimadzu Exion LC Binary Gradient AD Pump HLPC system connected to a Sciex QTRAP 6500+ mass spectrometer. Five μl of sample was injected onto a Waters Acquity UPLC BEH C18 column 130A (2.1×30 mm, […]) at 40° C. utilizing a flow rate of 700 μl/minute. Mobile Phase A was 0.1% formic acid in water and mobile phase B was 0.1% formic acid in acetonitrile. A linear gradient of 15-95% B over 1.0 minute was used. The mass spectrometer was operated in positive ion electrospray mode with multiple reaction monitoring for maximum sensitivity. Sciex Analyst software (version 1.6.3) was used for LC/MS/MS instrument control and acquisition. Compound concentration was determined against a standard curve of internal standard versus compound peak area ratio. Noncompartmental PK parameters were determined using Phoenix 32 software (version 8.2.0.4383) from Certara. Plasma concentrations from the LC/MS/MS analyses, dose, route of administration, and desired units were utilized for PK parameter calculations. […] FIG. 3C provides the concentration over time of compound 30 following in vivo oral administration in the 6 hour and 24 hour assays.
Cmax, Tmax and AUClast were all calculated using a WinNonLin Phoenix 64 v 8.2.0.4383. Using non-compartmental analysis, Tmax, Cmax and AUClast were determined as follows:
Tmax—Time of maximum observed concentration. Cmax—Maximum observed concentration, occurring at time Tmax, as defined above. AUClast—Area under the curve from the time of dosing to the time of the last measurable (positive) concentration (Tlast).

The target in the next data set is T1, ITK (Homo sapiens, UniProt Q08881).
T1 construct: Compounds provided herein were assayed in vitro with ITK HiBit cell lines; endogenous in cells; host or cells: Molt4 (ATCC CRL-1552 [sic]), monoclonal clone 1C10
T1 sequence (Q08881 1-620): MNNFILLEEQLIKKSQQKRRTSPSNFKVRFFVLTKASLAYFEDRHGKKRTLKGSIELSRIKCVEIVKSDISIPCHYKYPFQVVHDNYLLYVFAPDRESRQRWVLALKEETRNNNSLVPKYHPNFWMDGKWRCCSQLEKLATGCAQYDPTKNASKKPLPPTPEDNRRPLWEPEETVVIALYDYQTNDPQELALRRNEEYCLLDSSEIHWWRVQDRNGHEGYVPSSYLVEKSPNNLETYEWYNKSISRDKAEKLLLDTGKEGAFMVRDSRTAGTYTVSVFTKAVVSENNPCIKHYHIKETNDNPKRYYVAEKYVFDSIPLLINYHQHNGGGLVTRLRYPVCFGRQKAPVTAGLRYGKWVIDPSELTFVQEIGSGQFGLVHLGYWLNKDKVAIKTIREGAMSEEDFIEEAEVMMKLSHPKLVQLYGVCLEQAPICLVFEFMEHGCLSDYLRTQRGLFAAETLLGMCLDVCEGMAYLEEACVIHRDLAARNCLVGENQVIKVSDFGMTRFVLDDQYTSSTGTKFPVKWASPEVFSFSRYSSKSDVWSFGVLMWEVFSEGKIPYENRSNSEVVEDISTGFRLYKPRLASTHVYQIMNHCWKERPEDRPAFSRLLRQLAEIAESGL
Kind of data set: ITK Degradation HiBiT Assay. Type of data set: cell-based. How it is done: Compounds provided herein were assayed in vitro with ITK HiBit cell lines. Compound dilution series (11-point, 5 fold dilutions in DMSO, columns 2-12 with replicate in rows A/B, C/D, E/F, G, H at 2000× the final required concentrations were prepared in 96 well plate (Falcon, cat. no. 353077). Column 1, rows A-H were control DMSO. The 2000× solutions ranged from 2 mM to 1.024 nM (final assay concentration range 1 μM to […]). The 2000× solutions were added to cells in […], for a final DMSO concentration of 0.5% and final assay compound concentration of 1×. For the cells, C-terminal HiBiT-tagged Molt4 cells (ATCC CRL-1552, monoclonal cell line clone 1C10) were plated at 1×10^6 cells/mL, 100 μL/well ([…]) in complete RPMI (10% FBS, 1% L-glutamine). The cells were incubated with compound 32 and compound 30 for 4 hrs at 32° C./6% CO2.
Following incubation, 100 μL of complete Nano-Glo HiBiT Lytic Detection Reagent (Nano-Glo HiBiT Lytic Buffer with 1:50 Nano-Glo HiBiT Lytic Substrate and 1:100 LgBiT Protein; Promega cat. no. N3O40) was added. Cells were further incubated for 10 min at room temperature (RT). Luminescence units (LU) were read on an EnVision plate reader (Perkin Elmer, 0.1 sec per well). Percent ITK remaining per sample was calculated as follows: […]
Using Graphpad Prism, % ITK remaining values were plotted as a function of compound concentration. To determine DC50 and Dmax values, resulting curves were fit to the Prism curve-fitting equation “log(inhibitor) vs response−Variable slope (four parameters)” (reported best fit value IC50 used as DC50). ITK was measured with antibody-based MSD (Meso-Scale Discovery) assays shown below.
For orientation: With HiBiT, luminescence reflects the tagged protein that the partner subunit can reach.

Setting [2] is: MOLT-4, C-terminal HiBiT-tagged Molt4 cells, 4 hrs incubation, read-out: HiBiT DMax (%).

On to `CN(C(=O)CC1CCN(c2ccc(C3CCC(=O)NC3=O)cn2)CC1)c1ccc2cc(-c3n[nH]c4c3C[C@@H]3C(F)(F)[C@]3(C)C4)[nH]c2c1` (some centres unmarked) [Compound 27], for which, in data set [1], the AUC(0-t) (as a rule, the area under the concentration-time curve up to a stated or last time point) amounted to 1.69 µM·h; the highest level (Cmax) was 609 nM; the Tmax (usually the time at which the peak concentration occurs) was found to be 1 h.

`CC1(C)CCc2c(-c3cc4ccc(C(=O)N5CCN(CC6CCN(c7ccc(C8CCC(=O)NC8=O)nc7)CC6)CC5)cc4[nH]3)n[nH]c2C1` (centres unmarked) [Compound 42, 3-(5-(4-((4-(2-(6,6-dimethyl-4,5,6,7-tetrahydro-1H-indazol-3-yl)-1H-indole-6-carbonyl)piperazin-1-yl)methyl)piperidin-1-yl)pyridin-2-yl)piperidine-2,6-dione]: on ITK (C-terminal HiBiT-tagged Molt4 cells, 4 hrs incubation), the DC50 (usually the midpoint of the concentration-degradation curve) is 3 pM. For the same molecule, the Dmax (in general, the greatest extent of degradation seen) at ITK (setting [2]) was 88%. In addition, in data set [1], the area under the curve AUC(0-t) amounted to 28 µM·h, the highest level (Cmax) was 5100 nM and the Tmax was 2 h.

`C[C@@H](C(=O)N(C)c1ccc2cc(-c3n[nH]c4c3C[C@@H]3C(F)(F)[C@]3(C)C4)[nH]c2c1)N1CCN(CC2CCN(c3ccc(C4CCC(=O)NC4=O)cn3)CC2)CC1` (stereo partly drawn) [Compound 30, (2S)—N-(2-((4aS,5aR)-5,5-difluoro-5a-methyl-1,4,4a,5,5a,6-hexahydrocyclopropa[f]indazol-3-yl)-1H-indol-6-yl)-2-(4-((1-(5-(2,6-dioxopiperidin-3-yl)pyridin-2-yl)piperidin-4-yl)methyl)piperazin-1-yl)-N-methylpropanamide]: the Dmax at ITK (ITK degradation in HiBiT cell line, FIG. 1, read-out: Dmax values (FIG. 1)) fell in the range of 90 to 100%. On ITK (setting [2]), the Dmax was 85%. Besides, the detection in plasma result in data set [1] (oral, 6 hour and 24 hour assays) is “detected in plasma through 6 and 24 hours”. Besides, in data set [1], the AUC(0-t) worked out at 1.25 µM·h, the highest level (Cmax) was 870 nM and the Tmax is 2 h.
